Source: publication PMC10571957, “αV-Integrin-Dependent Inhibition of Glioblastoma Cell Migration, Invasion and Vasculogenic Mimicry by the uPAcyclin Decapeptide” (Cancers, 2023)

How the values were obtained:
[1] = tested on: U251-MG cells (αV integrin); assay: FITC-uPAcyclin receptor binding/competition, U251-MG; set-up: species or system human; settings: unlabeled uPAcyclin vs FITC-uPAcyclin, 4 °C
Experimental: (§1) The U87-MG, U251-MG, and U138-MG cell lines were harvested and acid-treated, as described. Then, 2 × 10^6 cells/sample were exposed for 30 min at 4 °C to uPAcyclin or S-uPAcyclin at the indicated concentrations, or with the following antibodies: VNR147 monoclonal anti-αV integrin (Chemicon Int. Inc., Temecula, CA, USA), polyclonal anti-αV (Millipore, Burlington, MA, USA), monoclonal anti-α2 (Chemicon Int. Inc., Temecula, CA, USA), polyclonal anti-actin (Sigma-Aldrich, St. Louis, MO, USA), monoclonal anti-GAPDH (Abcam, Cambridge, UK), and purified vitronectin (VN, Corning, Glendale, AZ, USA). The cells were subsequently incubated with 50 nM FITC-uPAcyclin for 2 h at 4 °C, as described. At the end of incubation, the cells were washed and the cell surface-associated fluorescence was determined using a fluorimeter (VICTOR^TM X3-PerkinElmer, Waltham, MA, USA). All binding assays were performed three times, with duplicate samples, and analyzed as described in Section 2.11.
(§2) Figure 2 αV expression of U87-MG, U251-MG, and U138-MG GBM cells and specific binding of FITC-uPAcyclin. […] At the end of the incubation, the unbound material was washed and cell-associated FITC-uPAcyclin was quantitated by a fluorimeter. The net value of cell-surface-associated fluorescence, corresponding to the specific binding, is shown. […]

[2] = tested on: U138-MG cells (αV integrin); assay: FITC-uPAcyclin receptor binding/competition, U138-MG; set-up: species or system human; settings: unlabeled uPAcyclin vs FITC-uPAcyclin, 4 °C
Experimental: as §1, §2

[3] = tested on: U251-MG cells; assay: Cell viability/proliferation (Trypan blue), U251-MG; type: cell-based, human; settings: 1 nM or 100 nM, 72–96 h
Experimental: (§3) Cell viability was tested in DMEM/10% FBS, in the presence of 1 nM or 100 nM uPAcyclin, either by Trypan blue exclusion or by thiazolyl blue tetrazolium bromide (MTT) assays, as specified in the figure legends. For the Trypan blue assay, 4 × 10^4 U87-MG, U251-MG, U138-MG, and C6 cells/sample were grown in 12-well plates, and followed for 24, 48 and 72 h. As a negative control, the cells were grown in a serum-free medium. Then, the cells were detached, stained with a 0.2% (w/v) Trypan blue solution, counted using a Burker chamber (T0 = 100%), and reported as number of viable cells/total.

[4] = tested on: U138-MG cells; assay: Cell viability/proliferation (Trypan blue), U138-MG; type: cell-based, human; settings: 1 nM or 100 nM, 72–96 h
Experimental: as §3

[5] = tested on: C6 cells; assay: Cell viability/proliferation (Trypan blue, MTT), C6; type: cell-based, rat; settings: C6, Trypan blue exclusion and MTT
Experimental: as §3
For the MTT assay, 5 × 10^3 U87-MG and C6 cells/well were grown in 96-well plates for 24 h and tested as previously described. Briefly, MTT (Invitrogen-Life Technologies, Eugene, OR, USA) 5 mg/mL in a PBS solution was added to wells at a 10% final concentration, and incubated for 3 h at 37 °C, followed by the addition of stop solution (100 µL of DMSO/well) for 1 h at room temperature. Then, the optical densities were measured at 495 nm using the Microplate Reader (Synergy HT, Bio-Tek, Winoosky, VT, USA). The cell viability rate was calculated as a percentage by reporting the mean absorbance of treated groups to control groups, as follows: Cell viability rate (%) = (Atreated group/Acontrol group) × 100.

[6] = tested on: HT1080 fibrosarcoma cells; settings: cited from earlier work
Description: Thus, in the present work, we investigated the effects of the anti-migratory uPAcyclin decapeptide, binding to the αV integrin subunit. This cyclic decapeptide is derived from a non-catalytic region of the human urokinase (uPA) plasminogen activator. The growth factor domain (GFD, residues 1-49) and the connecting peptide region (CP, residues 132-158) confer to the full uPA a clearcut motogen activity. While the GFD binds to the urokinase receptor (uPAR), the CP region binds to the αV integrin subunit. […] The primary sequence of this cyclic peptide, derived from the connecting peptide region (CP) of the serin protease urokinase (uPA), is reported in Figure 1A. As assessed by a previous conformational analysis of uPAcyclin performed in water solution, about half of the peptide molecules ...

[7] = tested on: cancer-associated fibroblasts (CAFs) from breast cancer patients; settings: ref [30]; cited from earlier work
Description: Thus, in the present work, we investigated the effects of the anti-migratory uPAcyclin decapeptide, binding to the αV integrin subunit. This cyclic decapeptide is derived from a non-catalytic region of the human urokinase (uPA) plasminogen activator. The growth factor domain (GFD, residues 1–49) and the connecting peptide region (CP, residues 132–158) confer to the full uPA a clearcut motogen activity. While the GFD binds to the urokinase receptor (uPAR), the CP region binds to the αV integrin subunit.

## Ac-K^1P[ESPPEELK^10]-NH2 (sidechain bridge or staple) [uPAcyclin]
[1]
  Kdapp: low nanomolar range
[2]
  Kdapp: low nanomolar range
[3]
  proliferation/viability: unaffected by uPAcyclin, regardless of the concentration employed
[4]
  proliferation/viability: unaffected by uPAcyclin, regardless of the concentration employed
[5]
  proliferation/viability: proliferation and viability are not affected by uPAcyclin
[6]; mice injected with HT1080 fibrosarcoma cells, ref [29]
  lung metastases: prevent lung metastases
[6]; nude mice, ref [25]
  metastatic lung spreading: markedly inhibits metastatic lung spreading in nude mice
[7]
  pro-invasive ability of CAFs: inhibited the pro-invasive ability of cancer-associated fibroblasts
